Source: patent publication US20210238139A1, “MODULATORS OF TRYPTOPHAN CATABOLISM” (E-Therapeutics PLC, priority 2018, published 2021)
Like-named read-outs stand apart in the source and are kept apart here.

Tested on: SK-OV-3 cells
Test: Effect of compounds on tryptophan catabolism in SK-OV-3 cell line (inhibition of kynurenine production, LC-MS/MS)
Assay type: cell-based
Settings: SK-OV-3 cell line, 24 h incubation, kynurenine in supernatant by LC-MS/MS, read-out: IC50 Ranges (ic50 values for inhibition of Kynurenine production)
In short: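 Cells seeded overnight in McCoy's 5A/10% FBS, then switched to DMEM F-12 with 6 mg/mL L-tryptophan; compounds added at 8 3-fold dilutions from 30 μM, in duplicate, 24 h at 37 °C. Supernatant kynurenine measured by LC-MS/MS; ATP-based viability run in parallel; IC50 from % inhibition of Kyn production.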

Row | IC50 (Homo sapiens, SK-OV-3, 24 h) | IC50 | SMILES
1 | 100 to 500 nM |  | Cc1ccc(CN(C(=O)Nc2ccc(C#N)cc2)C2CCCC2C#N)o1 (centres unmarked) [Compound 219, 1-(2-cyanocyclopentyl)-3-(4-cyanophenyl)-1-[(5-methyl-2-furyl)methyl]urea]
2 | 500 to 1000 nM |  | Cc1ccc(CN(C(=O)Nc2ccc(C#N)cc2)c2ccn(C)n2)o1 [Compound 221, 3-(4-cyanophenyl)-1-[(5-methyl-2-furyl)methyl]-1-(1-methylpyrazol-3-yl)urea]
3 | 100 to 500 nM |  | Cc1ccc(CN(C(=O)Nc2ccc(Cl)cc2)C2CC(F)C2)o1 (centres unmarked) [Compound 222, 3-(4-chlorophenyl)-1-(3-fluorocyclobutyl)-1-[(5-methyl-2-furyl)methyl]urea]
4 | 100 to 500 nM |  | N#Cc1ccc(NC(=O)N(Cc2ccc3ocnc3c2)C2CCC2)cc1 [Compound 223, 1-(1,3-benzoxazol-5-ylmethyl)-3-(4-cyanophenyl)-1-cyclobutyl-urea]
5 | 100 to 500 nM |  | Cc1ccc(CN(C(=O)Nc2ccc(C#N)cc2)C2CCC(C#N)C2)o1 (centres unmarked) [Compound 224, 1-(3-cyanocyclopentyl)-3-(4-cyanophenyl)-1-[(5-methyl-2-furyl)methyl]urea]
6 | 100 to 500 nM |  | Cc1ccc(CN(C(=O)Nc2ccc(Cl)cc2)c2cnn(C)c2)o1 [Compound 225, 3-(4-chlorophenyl)-1-[(5-methyl-2-furyl)methyl]-1-(1-methylpyrazol-4-yl)urea]
7 | 100 to 500 nM |  | Cc1ccc(CN(C(=O)Nc2ccc(Cl)cc2)c2ccn(C)n2)o1 [Compound 226, 3-(4-chlorophenyl)-1-[(5-methyl-2-furyl)methyl]-1-(1-methylpyrazol-3-yl)urea]
8 | < 100 nM |  | Cc1ccc(CN(C(=O)Nc2ccc(Cl)cc2)C2CCCC2C#N)o1 (centres unmarked) [Compound 227, 3-(4-chlorophenyl)-1-(2-cyanocyclopentyl)-1-[(5-methyl-2-furyl)methyl]urea]
9 | 100 to 500 nM |  | Cc1ccc(CN(C(=O)Nc2ccc(C(F)(F)F)nc2)C2CCCC2)o1 [Compound 228, 1-cyclopentyl-1-[(5-methyl-2-furyl)methyl]-3-[6-(trifluoromethyl)-3-pyridyl]urea]
10 | 100 to 500 nM |  | N#Cc1ccc(NC(=O)N(Cc2nc3ccccc3s2)C2CCC2)cc1 [Compound 229, 1-(1,3-benzothiazol-2-ylmethyl)-3-(4-cyanophenyl)-1-cyclobutyl-urea]
11 | 100 to 500 nM |  | Cc1ccc(CN(C(=O)Nc2ccc(C#N)cc2)c2c(C)noc2C)o1 [Compound 230, 3-(4-cyanophenyl)-1-(3,5-dimethylisoxazol-4-yl)-1-[(5-methyl-2-furyl)methyl]urea]
12 | 1000 to 5000 nM |  | Cc1ccc(CN(C(=O)Nc2ccc(C#N)cc2)c2cncn2C)o1 [Compound 231, 3-(4-cyanophenyl)-1-[(5-methyl-2-furyl)methyl]-1-(3-methylimidazol-4-yl)urea]
13 | < 100 nM |  | O=C(Nc1ccc(Cl)cc1)N(Cc1ccc2ocnc2c1)C1CCC1 [Compound 232, 1-(1,3-benzoxazol-5-ylmethyl)-3-(4-chlorophenyl)-1-cyclobutyl-urea]
14 | 1000 to 5000 nM |  | Cc1ccc(CN(C(=O)Nc2ccc(C#N)cc2)c2nccn2C)o1 [Compound 233, 3-(4-cyanophenyl)-1-[(5-methyl-2-furyl)methyl]-1-(1-methylimidazol-2-yl)urea]
15 | < 100 nM |  | N#Cc1ccc(NC(=O)N(Cc2cc3ccccc3o2)C2CCC2)cc1 [Compound 234, 1-(benzofuran-2-ylmethyl)-3-(4-cyanophenyl)-1-cyclobutyl-urea]
16 | < 100 nM |  | Cn1ncc2ccc(CN(C(=O)Nc3ccc(Cl)cc3)C3CCC3)cc21 [Compound 235, 3-(4-chlorophenyl)-1-cyclobutyl-1-[(1-methylindazol-6-yl)methyl]urea]
17 | 500 to 1000 nM |  | C#Cc1ccc(NC(=O)N(Cc2ccc(C)o2)C2COC2)cc1 [Compound 236, 3-(4-ethynylphenyl)-1-[(5-methyl-2-furyl)methyl]-1-(oxetan-3-yl)urea]
18 | 100 to 500 nM |  | O=C(Nc1ccc(Cl)cc1)N(Cc1ccc2ncoc2c1)C1CCC1 [Compound 237, 1-(1,3-benzoxazol-6-ylmethyl)-3-(4-chlorophenyl)-1-cyclobutyl-urea]
19 | 100 to 500 nM |  | Cc1ccc(CN(C(=O)Nc2ccc(Cl)cc2)c2c(C)noc2C)o1 [Compound 238, 3-(4-chlorophenyl)-1-(3,5-dimethylisoxazol-4-yl)-1-[(5-methyl-2-furyl)methyl]urea]
20 | 100 to 500 nM |  | O=C(Nc1ccc(Cl)cc1)N(Cc1cc2ccccn2n1)C1CCC1 [Compound 239, 3-(4-chlorophenyl)-1-cyclobutyl-1-(pyrazolo[1,5-a]pyridin-2-ylmethyl)urea]
21 | < 100 nM |  | O=C(Nc1ccc(Cl)cc1)N(Cc1ccc2nsnc2c1)C1CCC1 [Compound 240, 1-(2,1,3-benzothiadiazol-5-ylmethyl)-3-(4-chlorophenyl)-1-cyclobutyl-urea]
22 | 500 to 1000 nM |  | Cc1ccc(CN(C(=O)Nc2ccc(C#N)cc2)C2CC(F)(F)C2)o1 [Compound 241, 3-(4-cyanophenyl)-1-(3,3-difluorocyclobutyl)-1-[(5-methyl-2-furyl)methyl]urea]

Row | IC50 (Homo sapiens, SK-OV-3, 24 h) | IC50 | SMILES
23 |  | 100 to 500 nM | Cc1ccc(CN(C(=O)Nc2ccc(Cl)cc2)c2cncn2C)o1 [Compound 242, 3-(4-chlorophenyl)-1-[(5-methyl-2-furyl)methyl]-1-(3-methylimidazol-4-yl) urea]
24 | 100 to 500 nM |  | O=C(Nc1ccc(Cl)cc1)N(Cc1ccc2ncsc2c1)C1CCC1 [Compound 243, 1-(1,3-benzothiazol-6-ylmethyl)-3-(4-chlorophenyl)-1-cyclobutyl-urea]
25 | 100 to 500 nM |  | Cc1ccc(CN(C(=O)Nc2ccc(C#N)cc2)C2CCC(F)(F)C2)o1 (centres unmarked) [Compound 244, 3-(4-cyanophenyl)-1-(3,3-difluorocyclopentyl)-1-[(5-methyl-2-furyl)methyl]urea]
26 | 100 to 500 nM |  | Cc1ccc(CN(C(=O)Nc2ccc(Cl)cc2)C2CCC(F)(F)C2)o1 (centres unmarked) [Compound 245, 3-(4-chlorophenyl)-1-(3,3-difluorocyclopentyl)-1-[(5-methyl-2-furyl)methyl]urea]
27 | 500 to 1000 nM |  | Cc1ccc(NC(=O)N(Cc2ccc(C)o2)C2CCCC2)cn1 [Compound 246, 1-cyclopentyl-1-[(5-methyl-2-furyl)methyl]-3-(6-methyl-3-pyridyl)urea]
28 | 100 to 500 nM |  | Cc1ccc(CN(C(=O)Nc2ccc(Cl)cc2)C2CC(F)(F)C2)o1 [Compound 247, 3-(4-chlorophenyl)-1-(3,3-difluorocyclobutyl)-1-[(5-methyl-2-furyl)methyl]urea]
29 | 100 to 500 nM |  | O=C(Nc1ccc(Cl)cc1)N(Cc1nc2ccccc2s1)C1CCC1 [Compound 248, 1-(1,3-benzothiazol-2-ylmethyl)-3-(4-chlorophenyl)-1-cyclobutyl-urea]
30 | > 5000 nM |  | N#Cc1ccc(NC(=O)N(Cc2cc3ncccc3o2)C2CCC2)cc1 [Compound 249, 3-(4-cyanophenyl)-1-cyclobutyl-1-(furo[3,2-b]pyridin-2-ylmethyl)urea]
31 | 1000 to 5000 nM |  | O=C(Nc1ccc(Cl)cc1)N(Cc1cn2ccccc2n1)C1CCC1 [Compound 250, 3-(4-chlorophenyl)-1-cyclobutyl-1-(imidazo[1,2-a]pyridin-2-ylmethyl)urea]
32 | 500 to 1000 nM |  | COC1CC(N(Cc2ccc(C)o2)C(=O)Nc2ccc(Cl)cc2)C1 (centres unmarked) [Compound 251, 3-(4-chlorophenyl)-1-(3-methoxycyclobutyl)-1-[(5-methyl-2-furyl)methyl]urea]
33 | > 5000 nM |  | O=C(Nc1ccc(Cl)cc1)N(Cc1cc2ncccc2o1)C1CCC1 [Compound 252, 3-(4-chlorophenyl)-1-cyclobutyl-1-(furo[3,2-b]pyridin-2-ylmethyl)urea]
34 | 100 to 500 nM |  | COc1ccc(NC(=O)N(Cc2ccc(C)o2)C2CCCC2)cn1 [Compound 253, 1-cyclopentyl-3-(6-methoxy-3-pyridyl)-1-[(5-methyl-2-furyl)methyl]urea]
35 | 500 to 1000 nM |  | Cc1ccc(CN(C(=O)Nc2ccc(Cl)cc2)C2CCC(C#N)C2)o1 (centres unmarked) [Compound 254, 3-(4-chlorophenyl)-1-(3-cyanocyclopentyl)-1-[(5-methyl-2-furyl)methyl]urea]
36 | 100 to 500 nM |  | N#Cc1ccc(NC(=O)N(Cc2ccc3nsnc3c2)C2CCC2)cc1 [Compound 255, 1-(2,1,3-benzothiadiazol-5-ylmethyl)-3-(4-cyanophenyl)-1-cyclobutyl-urea]
37 | > 5000 nM |  | C#Cc1ccc(NC(=O)N(Cc2ccc(C)o2)C2CCN(C)CC2)cc1 [Compound 258, 3-(4-ethynylphenyl)-1-[(5-methyl-2-furyl)methyl]-1-(1-methyl-4-piperidyl)urea]
38 | 100 to 500 nM |  | C#Cc1ccc(NC(=O)N(Cc2ccc(C)o2)C2CCOCC2)cc1 [Compound 259, 3-(4-ethynylphenyl)-1-[(5-methyl-2-furyl)methyl]-1-tetrahydropyran-4-yl-urea]
39 | < 100 nM |  | O=C(Nc1ccc(Cl)cc1)N(Cc1ccc2scnc2c1)C1CCC1 [Compound 260, 1-(1,3-benzothiazol-5-ylmethyl)-3-(4-chlorophenyl)-1-cyclobutyl-urea]
40 | < 100 nM |  | N#Cc1ccc(NC(=O)N(Cc2ccc3scnc3c2)C2CCC2)cc1 [Compound 261, 1-(1,3-benzothiazol-5-ylmethyl)-3-(4-cyanophenyl)-1-cyclobutyl-urea]
41 | < 100 nM |  | O=C(Nc1ccc(Cl)cc1)N(Cc1cccc2ncsc12)C1CCC1 [Compound 262, 1-(1,3-benzothiazol-7-ylmethyl)-3-(4-chlorophenyl)-1-cyclobutyl-urea]
42 | 100 to 500 nM |  | N#Cc1ccc(NC(=O)N(Cc2cccc3ncsc23)C2CCC2)cc1 [Compound 263, 1-(1,3-benzothiazol-7-ylmethyl)-3-(4-cyanophenyl)-1-cyclobutyl-urea]
43 | > 5000 nM |  | CN1CCC(N(Cc2ccc3ncsc3c2)C(=O)Nc2ccc(C#N)cc2)CC1 [Compound 264, 1-(1,3-benzothiazol-6-ylmethyl)-3-(4-cyanophenyl)-1-(1-methyl-4-piperidyl) urea]
44 | 1000 to 5000 nM |  | N#Cc1ccc(NC(=O)N(Cc2ccc3ncsc3c2)C2CCOCC2)cc1 [Compound 265, 1-(1,3-benzothiazol-6-ylmethyl)-3-(4-cyanophenyl)-1-tetrahydropyran-4-yl-urea]
